# Test results reported in patent US20100256179A1, “COMBINATION THERAPY FOR PAIN IN PAINFUL DIABETIC NEUROPATHY” (UCB PHARMA GMBH, priority 2004, published 2010).
# How the values were obtained:
# [1] = Safety and tolerability of lacosamide in the trial; format: in vivo, human
# Description: Safety variables evaluated included adverse events, clinical laboratory assessments, electrocardiograms (ECGs), vital sign measurements, and physical and neurological examinations.
# [2] = tested on: pain in subjects with diabetic distal sensory polyneuropathy; assay: Randomized, double-blind placebo controlled trial of lacosamide in painful diabetic neuropathy: efficacy; format: in vivo, human
# Procedure: A randomized, double-blind placebo controlled trial to investigate safety and efficacy of lacosamide in painful diabetic neuropathy was conducted.
# Baseline data were collected during the last week of a 4-week Run-In Phase to ensure subject eligibility. […] The highest attained dose was maintained for 4 weeks during the Maintenance Phase, after which subjects entered the Taper Phase and were tapered off of study medication for 1 week. The Taper Phase was followed by a 2-week Safety Follow-Up Phase.
# Subjects were male or female, age 18 or older. Subjects had clinically diagnosed pain attributed to diabetic distal sensory polyneuropathy for 1-5 years and a diagnosis of diabetes mellitus (Type I or Type II). Subjects had at least moderate pain (mean pain intensity during the Baseline week ≧4 out of 10 on an 11-point Likert scale) which had been stable for 4 weeks prior to randomization. Furthermore, subjects had good or fair diabetic control (glycosylated hemoglobin (HbA1C) <10%), which was optimized (best effort to achieve best control) for at least three months prior to Visit 1. Test product, dose and mode of administration, batch number
# After completion of screening assessments, subjects began a 4-week Run-In Phase. […] Following the titration scheme, their dosage was escalated by 100 mg in weekly increments to a maximum dose of 400 mg/day (provided tolerability was satisfactory).
# If subjects reached total or sufficient pain relief with lower doses than 400 mg/day, after careful consideration by the investigator, they were allowed to stay on the attained dose level in the Maintenance Phase. If adverse events were intolerable during the Titration Phase or the first week of the Maintenance Phase (only for those subjects reaching the 400 mg/day level), subjects could be down-titrated, once, to the next lowest dose. Subjects were treated at 400 mg/day (or highest dose achieved) for 4 weeks in the Maintenance Phase.
# The primary variable was the within-subject change in average daily pain score from the Baseline week to Maintenance Phase, using an 11-point Likert scale (0-10). […]
# [3] = tested on: formalin-induced flinching and licking response of the affected paw; assay: rat formalin paw test (late phase); format: in vivo
# Procedure: Rats were given an intraplantar injection of 5% formalin (50 μl) into the posterior left paw. This treatment induces a recognizable flinching and licking response of the affected paw in control animals. The number of flinches was counted for 15 minutes, beginning 20 minutes after injection of formalin. The time spent licking the affected paw was also recorded.
# Male Rj: Wistar (Han) rats, 10 per group, weighing 100-130 g at the beginning of the experiments were studied per group. The test was performed blind.
# [4] = Trough and peak plasma concentrations of unchanged lacosamide in the trial; format: in vivo, human; conditions: 400 mg/day, Maintenance Phase
# [5] = of 60 subjects in the lacosamide group
# [6] = Example 2, lacosamide 20 mg/kg i.p.
# [7] = Example 3, lacosamide 10 mg/kg i.p.
# [8] = Example 3, lacosamide 20 mg/kg i.p.
# [9] = Example 4, lacosamide 10 mg/kg i.p.
# [10] = Example 5, lacosamide 10 mg/kg i.p.
# [11] = Example 5, lacosamide 20 mg/kg i.p.
# [12] = Example 5, lacosamide alone at 10 mg/kg
smiles,measurement,setting,value
"COC[C@@H](NC(C)=O)C(=O)NCc1ccccc1 [Lacosamide, (R)-2-acetamido-N-benzyl-3-methoxypropionamide]","HbA1C level, mean change","[1]; Baseline to Visit 8, lacosamide group",0.1%
same,Body weight change during treatment,[1]; lacosamide group,-0.5 kg
same,subjects who withdrew from the trial due to an AE,[1]; lacosamide group,5 subjects
same,subjects with a serious adverse event (SAE),"[1]; lacosamide treatment group, abnormal ECG judged unlikely related to study medication",one
same,mean duration of exposure to study medication,"[1]; lacosamide treatment group, indicating high tolerability",59.6 days
same,subjects reporting adverse events associated with the central and peripheral nervous system,[1]; of 60 lacosamide subjects,38%
same,"subjects who reported at least one treatment-emergent adverse event (TEAE), overall incidence rate",[1]; [5],87%
same,subjects who withdrew from the trial due to an AE,[1]; [5],8%
same,weight gain,[1]; trial conclusion,did not induce weight gain
same,"reduction in pain from Baseline to the Maintenance Phase (average daily pain score, 11-point Likert scale), LSMean","[2]; Full Analysis Set (LOCF), oral lacosamide titrated to max 400 mg/day",3.11 point
same,proportion of subjects with a decrease of 2 or more points on the Likert pain scale,"[2]; compared with the placebo group, all phases of the trial",larger proportion
same,CGIC and PGIC scores,"[2]; end of Maintenance Phase (Visit 10), lacosamide and placebo",Statistically significant differences
same,difference in LSMean pain score between the two groups,"[2]; lacosamide vs placebo, FAS (LOCF), p=0.0390",0.9
same,Licking time % change (a): compared with vehicle control,[3]; [6],−34% (a)
same,Licking time (seconds) mean ± SEM,[3]; [6],146.9 ± 23.8 s
same,No. of flinches % change (a): compared with vehicle control,[3]; [6],−33% (a)
same,No. of flinches mean ± SEM,[3]; [6],85.7 ± 14.3
same,decrease in number of flinches as compared with vehicle controls,"[3]; Example 2, lacosamide alone at 20 mg/kg",33%
same,decrease in time spent licking as compared with vehicle controls,"[3]; Example 2, lacosamide alone at 20 mg/kg, p=0.0962",34%
same,Licking time % change (a): compared with vehicle control,[3]; [7],−28% (a)
same,Licking time (seconds) mean ± SEM,[3]; [7],210.1 ± 22.7 s
same,No. of flinches % change (a): compared with vehicle control,[3]; [7],+22% (a)
same,No. of flinches mean ± SEM,[3]; [7],182.7 ± 25.9
same,Licking time % change (a): compared with vehicle control,[3]; [8],−56% (a)
same,Licking time (seconds) mean ± SEM,[3]; [8],128.2 ± 28.0 s
same,No. of flinches % change (a): compared with vehicle control,[3]; [8],−35% (a)
same,No. of flinches mean ± SEM,[3]; [8],97.2 ± 16.0
same,increase in number of flinches as compared with vehicle controls,"[3]; Example 3, lacosamide alone at 10 mg/kg",22%
same,decrease in time spent licking,"[3]; Example 3, lacosamide alone at 10 mg/kg, p<0.05",28%
same,decrease in time spent licking,"[3]; Example 3, lacosamide alone at 20 mg/kg, p<0.001",56%
same,decrease in number of flinches as compared with vehicle controls,"[3]; Example 3, lacosamide alone at 20 mg/kg, p=0.0961",35%
same,decrease in time spent licking,"[3]; Example 4, lacosamide 10 mg/kg alone, p=0.0538",30%
same,Licking time % change (a): compared with vehicle control,[3]; [9],−30% (a)
same,Licking time (seconds) mean ± SEM,[3]; [9],185.2 ± 31.7 s
same,No. of flinches % change (a): compared with vehicle control,[3]; [9],+5% (a)
same,No. of flinches mean ± SEM,[3]; [9],158.2 ± 15.6
same,Licking time % change (a): compared with vehicle control,[3]; [10],−4% (a)
same,Licking time (seconds) mean ± SEM,[3]; [10],168.5 ± 23.9 s
same,No. of flinches % change (a): compared with vehicle control,[3]; [10],−31% (a)
same,No. of flinches mean ± SEM,[3]; [10],113.9 ± 23.2
same,Licking time % change (a): compared with vehicle control,[3]; [11],−52% (a)
same,Licking time (seconds) mean ± SEM,[3]; [11],85.1 ± 19.1 s
same,No. of flinches % change (a): compared with vehicle control,[3]; [11],−48% (a)
same,No. of flinches mean ± SEM,[3]; [11],85.8 ± 14.4
same,decrease in number of flinches as compared with vehicle controls,[3]; [12],31%
same,effect on time spent licking,[3]; [12],no clear effects
same,decrease in time spent licking,"[3]; Example 5, lacosamide alone at 20 mg/kg, p<0.01",52%
same,decrease in number of flinches as compared with vehicle controls,"[3]; Example 5, lacosamide alone at 20 mg/kg, p<0.05",48%
same,"mean plasma drug concentration, peak",[4]; Visit 9,11400 ng/mL
same,"mean plasma drug concentration, trough",[4]; Visit 9,7700 ng/mL
same,"mean plasma drug concentration, peak",[4]; Visit 10,9100 ng/mL
same,"mean plasma drug concentration, trough",[4]; Visit 10,7900 ng/mL
